Where a name gives a salt, the structure may show the parent alone. Read-outs that look alike come from different tables or passages of the source.
Assays:
Type in all cases: biochemical
[1] = molecular target: T1, recombinant human MAO-B (monoamine oxidase-B) (Homo sapiens, UniProt P27338); experiment: Activity on recombinant human MAO-B, Amplex Red method, 1 mM benzylamine substrate; conditions: read-out: Inhibitory Activity (IC50, nM) MAO-B
T1 construct: purchased Sigma-Aldrich
T1 sequence (P27338 1-520): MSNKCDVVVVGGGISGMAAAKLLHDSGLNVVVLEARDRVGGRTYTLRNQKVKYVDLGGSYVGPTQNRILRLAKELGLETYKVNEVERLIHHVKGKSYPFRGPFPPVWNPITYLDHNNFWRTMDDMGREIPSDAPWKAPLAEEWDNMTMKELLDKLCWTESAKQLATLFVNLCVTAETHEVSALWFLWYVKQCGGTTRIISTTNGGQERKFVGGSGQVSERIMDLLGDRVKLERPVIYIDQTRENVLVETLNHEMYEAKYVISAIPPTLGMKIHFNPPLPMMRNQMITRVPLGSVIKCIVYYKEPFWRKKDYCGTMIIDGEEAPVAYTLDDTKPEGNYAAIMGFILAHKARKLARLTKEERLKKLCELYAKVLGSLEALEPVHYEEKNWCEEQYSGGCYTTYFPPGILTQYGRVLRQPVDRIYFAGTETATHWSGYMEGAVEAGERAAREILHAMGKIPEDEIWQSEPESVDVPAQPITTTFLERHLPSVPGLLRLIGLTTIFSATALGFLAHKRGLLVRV
How it was run: (§1)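 Enzyme in pH 7.4 phosphate buffer; 30 min, 37° C with compound (DMSO <1%); start with 200 uM Amplex Red + 1 U/mL HRP + tyramine 0.5 mM (MAO-A) or benzylamine 1 mM (MAO-B); kinetic read ex 544/em 590, 1-2 h; % rate decrease vs DMSO control → IC50, 4-parameter fit.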

recombinant human VAP-1 = molecular target: T2, recombinant human VAP-1 (Homo sapiens, UniProt Q16853); experiment: Activity on recombinant human VAP-1, Amplex Red HRP-coupled hydrogen peroxide assay, benzylamine substrate; conditions: recombinant human VAP-1, benzylamine substrate, read-out: Inhibitory Activity (IC50, nM) human VAP-1
T2 construct: purchased R&D systems
T2 sequence (Q16853 1-763): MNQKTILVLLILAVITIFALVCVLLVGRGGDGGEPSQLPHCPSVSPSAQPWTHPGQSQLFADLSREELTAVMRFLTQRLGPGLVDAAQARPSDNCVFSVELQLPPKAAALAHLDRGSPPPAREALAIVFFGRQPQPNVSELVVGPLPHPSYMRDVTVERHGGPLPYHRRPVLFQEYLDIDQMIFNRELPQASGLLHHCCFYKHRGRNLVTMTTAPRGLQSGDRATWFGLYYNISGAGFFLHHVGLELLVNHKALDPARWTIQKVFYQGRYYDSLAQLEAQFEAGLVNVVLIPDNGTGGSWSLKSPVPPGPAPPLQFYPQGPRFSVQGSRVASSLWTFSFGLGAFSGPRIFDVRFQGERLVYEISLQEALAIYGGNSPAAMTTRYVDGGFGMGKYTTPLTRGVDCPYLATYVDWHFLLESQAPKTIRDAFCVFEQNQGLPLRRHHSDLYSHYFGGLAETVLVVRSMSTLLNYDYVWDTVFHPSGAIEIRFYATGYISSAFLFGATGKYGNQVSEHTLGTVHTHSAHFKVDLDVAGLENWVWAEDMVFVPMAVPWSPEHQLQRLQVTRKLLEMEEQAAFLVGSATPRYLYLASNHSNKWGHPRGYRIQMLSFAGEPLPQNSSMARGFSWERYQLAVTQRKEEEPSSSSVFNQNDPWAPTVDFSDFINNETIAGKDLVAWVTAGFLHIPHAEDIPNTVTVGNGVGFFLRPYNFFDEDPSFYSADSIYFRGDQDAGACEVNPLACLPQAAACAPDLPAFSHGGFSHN
How it was run: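 Enzyme in 50 mM sodium phosphate (pH 7.4) is exposed to test compound for 30 min at 37 °C. Benzylamine (1 mM) with HRP and Amplex Red then starts the reaction, and the fluorescence rate, relative to a DMSO-only control, gives IC50.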

[2] = molecular target: T3, recombinant human DAO (diamine oxidase) (Homo sapiens, UniProt P19801); experiment: Activity on recombinant human DAO, Amplex Red method, 1 mM putrescine substrate; conditions: recombinant human DAO; for IC50: read-out: Inhibitory Activity (IC50, nM) DAO
T3 construct: purchased R&D systems
T3 sequence (P19801 20-751): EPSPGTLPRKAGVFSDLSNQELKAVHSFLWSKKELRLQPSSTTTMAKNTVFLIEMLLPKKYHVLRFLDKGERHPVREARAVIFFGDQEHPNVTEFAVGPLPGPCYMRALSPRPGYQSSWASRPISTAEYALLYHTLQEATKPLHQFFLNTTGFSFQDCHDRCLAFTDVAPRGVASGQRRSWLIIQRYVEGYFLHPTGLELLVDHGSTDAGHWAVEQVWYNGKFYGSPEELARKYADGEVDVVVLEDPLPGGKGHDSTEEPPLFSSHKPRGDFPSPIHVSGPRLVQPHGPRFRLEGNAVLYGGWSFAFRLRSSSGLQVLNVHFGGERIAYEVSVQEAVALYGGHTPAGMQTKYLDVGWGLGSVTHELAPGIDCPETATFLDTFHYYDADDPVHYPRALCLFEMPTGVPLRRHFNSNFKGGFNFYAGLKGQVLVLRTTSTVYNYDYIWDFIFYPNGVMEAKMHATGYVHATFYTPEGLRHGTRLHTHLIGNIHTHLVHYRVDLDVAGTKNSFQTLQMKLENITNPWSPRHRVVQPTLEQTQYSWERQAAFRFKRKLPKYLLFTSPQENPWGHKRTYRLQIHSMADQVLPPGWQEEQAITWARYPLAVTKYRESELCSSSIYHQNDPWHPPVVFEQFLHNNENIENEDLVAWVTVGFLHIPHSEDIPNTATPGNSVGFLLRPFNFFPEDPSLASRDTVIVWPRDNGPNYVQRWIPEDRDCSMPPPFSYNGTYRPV
How it was run: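 Inhibition of recombinant human DAO (diamine oxidase, R&D systems) was assessed with the Amplex Red Hydrogen Peroxide Assay Kit. Hydrogen peroxide produced from 1 mM putrescine was detected through an HRP-coupled reaction that converts Amplex Red into fluorescent resorufin, read at 544 nm excitation and 590 nm emission. IC50 values came from four-parameter logistic fits in GraphPad Prism.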

[3] = molecular target: T4, recombinant human MAO-A (monoamine oxidase-A) (Homo sapiens, UniProt P21397); experiment: Activity on recombinant human MAO-A, Amplex Red method, 0.5 mM tyramine substrate; conditions: read-out: Inhibitory Activity (IC50, nM) MAO-A
T4 construct: purchased Sigma-Aldrich
T4 sequence (P21397 1-527): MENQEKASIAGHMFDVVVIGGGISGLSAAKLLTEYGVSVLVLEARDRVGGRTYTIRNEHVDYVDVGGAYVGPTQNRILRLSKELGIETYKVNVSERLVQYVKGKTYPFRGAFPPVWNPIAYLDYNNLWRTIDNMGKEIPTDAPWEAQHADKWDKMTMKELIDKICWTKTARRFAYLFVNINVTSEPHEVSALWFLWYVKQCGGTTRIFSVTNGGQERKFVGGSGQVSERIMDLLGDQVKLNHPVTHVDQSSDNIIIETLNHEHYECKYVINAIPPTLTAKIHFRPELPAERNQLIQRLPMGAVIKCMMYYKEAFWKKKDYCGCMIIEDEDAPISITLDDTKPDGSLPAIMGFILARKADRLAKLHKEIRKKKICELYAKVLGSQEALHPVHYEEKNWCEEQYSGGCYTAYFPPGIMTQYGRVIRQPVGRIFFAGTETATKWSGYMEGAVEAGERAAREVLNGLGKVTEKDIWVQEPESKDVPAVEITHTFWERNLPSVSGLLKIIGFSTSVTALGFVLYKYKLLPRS
How it was run: as §1

[4] = 1 mM putrescine, * = between 10 and 100 nM, ** = between 300 and 1000 nM

| IC50 ([1]; 1 mM benzylamine) [nM] | IC50 (recombinant human VAP-1; 30 min preincubation at 37° C.) [nM] | IC50 [2, 4] [nM] | IC50 ([3]; 0.5 mM tyramine) [nM] | Inhibitory Activity (IC50, nM) DAO [2, 4] | IC50 ([1]; 1 mM benzylamine substrate) [nM] | IC50 (recombinant human VAP-1) [nM] | IC50 ([2]; 1 mM putrescine substrate) [nM] | IC50 ([3]; 0.5 mM tyramine substrate) [nM] | SMILES |
| --- | --- | --- | --- | --- | --- | --- | --- | --- | --- |
| > 10000 | 0.75 | 110 | 5100 | – | – | – | – | – | CC(=O)Nc1ccc(-c2cccc(-n3cnn(C/C(=C\F)CN)c3=O)c2)cc1 [Example 56, N-(3′-{1-[(2Z)-2-(aminomethyl)-3-fluoroprop-2-en-1-yl]-5-oxo-1,5-dihydro-4H-1,2,4-triazol-4-yl}biphenyl-4-yl)acetamide hydrochloride] |
| 1350 | 1.1 | 41 | 9.69 | – | – | – | – | – | NC/C(=C/F)Cn1ncn(-c2cccc(-c3ccc4c(c3)OCO4)c2)c1=O [Example 92, 2-[(2Z)-2-(aminomethyl)-3-fluoroprop-2-en-1-yl]-4-[3-(1,3-benzodioxol-5-yl)phenyl]-2,4-dihydro-3H-1,2,4-triazol-3-one hydrochloride] |
| 142 | 2.2 | 32 | 5200 | – | – | – | – | – | NC/C(=C\F)Cn1ncn(-c2cc(F)c(Br)cc2F)c1=O [Example 23, 2-[(2E)-2-(aminomethyl)-3-fluoroprop-2-en-1-yl]-4-(4-bromo-2,5-difluorophenyl)-2,4-dihydro-3H-1,2,4-triazol-3-one hydrochloride] |
| > 10000 | 3.1 | – | > 100000 | no inhibitory | – | – | – | – | Cc1c(-c2ccc3sc(N)nc3c2)cccc1-n1cnn(C/C(=C/F)CN)c1=O [Example 114, 4-[3-(2-amino-1,3-benzothiazol-5-yl)-2-methylphenyl]-2-[(2E)-2-(aminomethyl)-3-fluoroprop-2-en-1-yl]-2,4-dihydro-3H-1,2,4-triazol-3-one] |
| 146 | 1.4 | 420 | 12000 | – | – | – | – | – | NC/C(=C\F)Cn1ncn(-c2c(F)cc(Br)cc2F)c1=O [Example 22, 2-[(2E)-2-(aminomethyl)-3-fluoroprop-2-en-1-yl]-4-(4-bromo-2,6-difluorophenyl)-2,4-dihydro-3H-1,2,4-triazol-3-one hydrochloride] |
| 980 | 1.5 | < 100 | > 100000 | – | – | – | – | – | Cc1cc(-n2cnn(C/C(=C/F)CN)c2=O)cnc1-c1ccc(-c2nc[nH]n2)cc1 [Example 115, 2-[(2E)-2-(aminomethyl)-3-fluoroprop-2-en-1-yl]-4-{5-methyl-6-[4-(1H-1,2,4-triazol-3-yl)phenyl]pyridin-3-yl}-2,4-dihydro-3H-1,2,4-triazol-3-one] |
| 1620 | 0.63 | < 30 | > 100000 | – | – | – | – | – | NC/C(=C\F)Cn1ncn(-c2cccc(-c3ccc(-c4ccc5c(c4)OCO5)cc3)c2)c1=O [Example 70, 2-[(2E)-2-(aminomethyl)-3-fluoroprop-2-en-1-yl]-4-[4′-(1,3-benzodioxol-5-yl)biphenyl-3-yl]-2,4-dihydro-3H-1,2,4-triazol-3-one hydrochloride] |
| 1800 | 0.62 | < 10 | > 100000 | – | – | – | – | – | NC/C(=C\F)Cn1ncn(-c2cccc(-c3ccc(Cl)nc3)c2)c1=O [Example 85, 2-[(2E)-2-(aminomethyl)-3-fluoroprop-2-en-1-yl]-4-[3-(6-chloropyridin-3-yl)phenyl]-2,4-dihydro-3H-1,2,4-triazol-3-one hydrochloride] |
| 7090 | 0.88 | 110 | > 100000 | – | – | – | – | – | Cc1cc(-c2ccc(-c3noc(C4CC4)n3)cc2)cnc1-n1cnn(C/C(=C/F)CN)c1=O [Example 141, 2-[(2E)-2-(aminomethyl)-3-fluoroprop-2-en-1-yl]-4-{5-[4-(5-cyclopropyl-1,2,4-oxadiazol-3-yl)phenyl]-3-methylpyridin-2-yl}-2,4-dihydro-3H-1,2,4-triazol-3-one hydrochloride] |
| 6420 | 0.82 | < 100 | > 100000 | – | – | – | – | – | NC/C(=C\F)Cn1ncn(-c2cccc(-c3ccc4sc(N)nc4c3)c2)c1=O [Example 99, 4-[3-(2-amino-1,3-benzothiazol-5-yl)phenyl]-2-[(2E)-2-(aminomethyl)-3-fluoroprop-2-en-1-yl]-2,4-dihydro-3H-1,2,4-triazol-3-one hydrochloride] |
| – | – | – | – | – | 11.4 | 1.4 | < 100 | > 100000 | CS(=O)(=O)c1ccc(-c2cnc(-n3cnn(C/C(=C\F)CN)c3=O)s2)cc1 [Example 226, 2-[(2Z)-2-(aminomethyl)-3-fluoroprop-2-en-1-yl]-4-{5-[4-(methylsulfonyl)phenyl]-1,3-thiazol-2-yl}-2,4-dihydro-3H-1,2,4-triazol-3-one hydrochloride] |
